Results reported in US20050113456A1, “Method of decreasing fat deposits and body weight in mammals and birds” (priority 2003, published 2005).
“And” between values parts separate entries of the source, which are not always exact repeats. Equal entries are not always repeated. Where two headings read alike, the source gives them in different places.

What was measured:
[1] = Description: Three dietary treatments were used in this clinical study. […] Sixty kilograms of each diet was prepared, and the drugs were mixed into the diets according to the standard operating procedures of the test facility. After mixing, the diets were cold pelleted (65° C.). The diets were analyzed for their concentration of test article immediately after the mixing and at predetermined intervals thereafter.
Day-old male broiler (Cobb) chicken were obtained from a commercial hatchery. The birds were raised in battery brooders housed in an environmentally controlled room and they received a commercial broiler starter diet from day 1 to 12. The birds were transferred to grower cages on day 12. On day 14, birds were weighed individually and birds with relatively high or low body weights were discarded. A total of 72 birds (of uniform body weight) were chosen and distributed into test groups so that average weights per test group were nearly equal. […] The diets were fed from day 14 to 28 and the animals were slaughtered on Day 29. Feed and water were available ad libitum. […] Mortality was recorded daily.

Cobb broilers = assay: Safety study in chicken: mortality; type: in vivo; settings: Day 14 to Day 28, Cobb broilers
Description: (§1) Three dietary treatments were used in this clinical study. […] After mixing, the diets were cold pelleted (65° C.).
Feed and water were available ad libitum. […] Mortality was recorded daily.

[2] = cited from earlier work; for Reduction of fat pad: Rehfeldt et al. 1997
smooth muscle = settings: Yamaguchi et al. 1996; cited from earlier work
[3] = Reduction of body fat by the isomers of salbutamol; design: species or system mammals and birds; settings: in vivo
[4] = Efficacy study in chicken: abdominal fat pad and body weight gain; type: in vivo; settings: for Abdominal fat pad (% BW): day 21 to 42; for Influence on body weight gain (grams): gain during 21 to 42 days of age; for Reduction of fat pads: females; for Decrease of fat pads: males
Description: as §1
The birds were transferred to grower cages on day 15 and a commercial broiler finisher diet (18.9% crude protein) was fed. […] Animals (of uniform body weight) were distributed into groups of 24 birds each. (Additional treatment groups than those shown here were used and dosed differently.) Each of the dietary treatments was then randomly assigned to the treatment groups. The diets were fed from day 21 and the animals were slaughtered on Day 42. Feed and water were available ad libitum throughout the study. Body weights were recorded at weekly intervals.

Beta-3 receptor = Beta-3 receptor (Homo sapiens, UniProt P13945); settings: results obtained from BRIDGE PHARMA, Inc.; read-out: Affinity for receptor (Ki) Beta-3; cited from earlier work
Beta-3 receptor, sequence (P13945 whole entry): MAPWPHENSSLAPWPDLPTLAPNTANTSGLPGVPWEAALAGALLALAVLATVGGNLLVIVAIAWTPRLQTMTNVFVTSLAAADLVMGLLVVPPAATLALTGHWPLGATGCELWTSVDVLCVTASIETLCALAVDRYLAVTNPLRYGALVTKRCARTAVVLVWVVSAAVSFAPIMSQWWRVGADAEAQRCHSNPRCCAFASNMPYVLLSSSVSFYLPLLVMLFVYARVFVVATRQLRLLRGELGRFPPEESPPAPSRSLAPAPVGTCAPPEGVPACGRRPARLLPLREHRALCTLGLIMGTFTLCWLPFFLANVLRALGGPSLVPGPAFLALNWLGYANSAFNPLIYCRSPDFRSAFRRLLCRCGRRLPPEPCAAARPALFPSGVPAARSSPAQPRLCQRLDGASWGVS

[5] = Efficacy study in obese young mammals; settings: oral, obese young animals, preliminary results
[6] = Efficacy study in obese adult mammals; settings: oral, obese adult animals, preliminary results
[7] = female broilers, 10 ppm in feed

CC(C)(C)NCC(O)c1ccc(O)c(CO)c1 (racemic) [RS-salbutamol]
Tissue drug concentration ([1]; racemate-treated animals): 61.3 ng/g | Concentration of total salbutamol in liver ([1]; treatment 10 ppm RS-salbutamol in feed, Day 14 to Day 28): 61.3 ng of drug per g of liver | Mortality (out of 24 birds) (Cobb broilers; 10 ppm in feed): caused fatalities and 2/24

CC(C)(C)NCC(O)c1cc(Cl)c(N)c(Cl)c1 (racemic) [clenbuterol, 4-amino-α-[(tert-butylamino)methyl]-3,5-dichlorobenzyl alcohol]
Effect on body weights of broiler chicken ([2]; Dalrymple et al. 1984): increased | Effect on abdominal fat weight ([2]; chicken, Hamano et al. 1998): could not find any effect | Reduction of abdominal fat pad ([2]; female chicken, Dalrymple et al. 1984): 8.5% | Reduction of fat pad ([2]; female chicken): 8.5% | Reduction of abdominal fat pad ([2]; male chicken, Dalrymple et al. 1984): did not reduce | Reduction of fat pad ([2]; male chicken): 6.0%

CC(C)(C)NC[C@@H](O)c1ccc(O)c(CO)c1 [S-salbutamol]
Smooth muscle hyperreactivity (smooth muscle): causes smooth muscle hyperreactivity | Reduction of fat content in the bodies of mammals and birds [3]: did not reduce fat

α′[(tert-butylamino) methyl]-4-hydroxy-m-xylene-α,α′-diol [R-salbutamol]
Abdominal fat pad (% BW) ([4]; female broilers, 5 ppm in feed): 1.79 % BW | Influence on body weight gain (grams) ([4]; female broilers, 5 ppm in feed): 1646 grams | Abdominal fat pad (% BW) [4, 7]: 1.77 % BW | Influence on body weight gain (grams) [4, 7]: 1614 grams | Reduction of fat pads ([4]; 5 ppm): 19.4% | Reduction of fat pads ([4]; 10 ppm): 20.3% | Abdominal fat pad (% BW) ([4]; male broilers, 5 ppm in feed): 1.64 % BW | Influence on body weight gain (grams) ([4]; male broilers, 5 ppm in feed): 1886 grams | Abdominal fat pad (% BW) ([4]; male broilers, 10 ppm in feed): 1.63 % BW | Influence on body weight gain (grams) ([4]; male broilers, 10 ppm in feed): 1887 grams | Decrease of fat pads ([4]; 5 ppm): 17.2% | Decrease of fat pads ([4]; 10 ppm): 17.7% | Ki (Beta-3 receptor): > 10 µM | Mortality (out of 24 birds) (Cobb broilers; 5 ppm in feed): no fatalities and 0/24 | Effect on body fat [5]: significantly decreases body fat | Effect on body fat [6]: significantly decreases body fat | Reduction of fat content in the bodies of mammals and birds [3]: potently and stereoselectively reducing the fat content
